Data on 4 compounds can be found in paper PMC3849035 (MedChemComm, 2011).

What is called EC50 is the concentration at which the effect is half-maximal.

One data set deals with VSV. In words: microbe, parasite or virus in culture. It counts as cell-based. The note with it: Vesicular stomatitis virus, HeLa.
The next data set relates to Reovirus-1. In words: Inhibition of virus-induced cytopathicity, Reovirus-1 in Vero cells. It counts as cell-based. Background: Cytopathic effects are the visible damage that an infection or toxin causes in cultured cells.
For another data set, the system named is Parainfluenza-3 virus. In words: Inhibition of virus-induced cytopathicity, parainfluenza-3 virus in Vero cells. It counts as cell-based.
The test system of the next data set is RSV. In words: Inhibition of virus-induced cytopathicity, RSV in HeLa cells. It counts as cell-based. The note with it: human respiratory syncytial virus.
For another data set, the system named is HEL cells. The conditions noted are these: microscopically visible alteration of cell morphology.
A further data set concerns VZV (OKA & 07/1). Nature of the data set: VZV plaque formation assay in HEL cells. It is filed as cell-based, varicella-zoster virus. The conditions noted are these: Human alphaherpesvirus 3, HEL, 120 h.
The subject of a further data set is Vero cells. The conditions noted are these: microscopically visible alteration of cell morphology.
In the next data set the test system is MDCK cells. The note with it: microscopically visible alteration of cell morphology.
The next data set relates to HeLa cells. The note with it: microscopically visible alteration of cell morphology.
The next data set deals with several tumor cell lines. In words: Cytotoxic activity against tumor cell lines. It is filed as cell-based.
The test system of another data set is HEL, HeLa, Vero, MDCK. The note with it: four different cell lines (HEL, HeLa, Vero, MDCK).
Another data set deals with HCMV and VZV. Nature of the data set: organism not typed. It is filed as cell-based. The note with it: read-out: EC50's against HCMV and VZV.

On to `NC(=O)c1ncn([C@@H]2O[C@H](CO)[C@@H](O)[C@H]2O)n1` [Ribavirin, reference compound], for which the EC50 with VSV was 29 µM; in the data set with Reovirus-1, more than 250 µM; with Parainfluenza-3 virus, 85 µM; with RSV, 10 µM.
`O=c1[nH]c(=O)n(C2C=CC(O)C2)cc1-c1cncs1` (stereo not shown) [1c, 1-[4′-Hydroxy-2′-cyclopenten-1′-yl]-5-(thiazol-5-yl)-uracil]: the “MCC (minimal cytotoxic concentration)” value in the data set with HEL cells was not below 100 µM; with Vero cells it was more than 100 µM; with MDCK cells it was 100 µM; in the data set on HeLa cells, more than 100 µM. In addition, the EC50 with VZV (OKA & 07/1) was 47 to 56 µM; in the data set with Reovirus-1, more than 100 µM; with Parainfluenza-3 virus it was more than 100 µM.
`O=c1[nH]c(=O)n(C2C=CC(O)C2)cc1-c1cccs1` (stereo not shown) [1a, 1-[4′-Hydroxy-2′-cyclopenten-1′-yl]-5-(thiophene-2-yl)-uracil]: the “MCC (minimal cytotoxic concentration)” value in the data set on HEL cells is given as not below 4 µM; in the data set on Vero cells, 20 µM; in the data set with MDCK cells, 4 µM; with HeLa cells, 20 µM. The EC50 in the data set with VZV (OKA & 07/1) is 1.6 to 1.7 µM; in the data set on HCMV and VZV it was 1.6 to 2 µM; in the data set with Reovirus-1, more than 4 µM; with Parainfluenza-3 virus it was more than 4 µM. For the same compound, in the data set with several tumor cell lines, the “cytotoxic activity against several tumor cell lines” value is given as “significant cytotoxic activity”. The global cytotoxicity with HEL, HeLa, Vero, MDCK was 4 to 20 µM.
With `O=c1[nH]c(=O)n(C2C=CC(O)C2)cc1-c1ccco1` (stereo not shown) [1b, 1-[4′-Hydroxy-2′-cyclopenten-1′-yl]-5-(furan-2-yl)-uracil], the “MCC (minimal cytotoxic concentration)” value in the data set with HEL cells, in the data set with Vero cells and in the data set on HeLa cells was more than 100 µM in each case. The EC50 in the data set with Parainfluenza-3 virus is more than 100 µM.
